Values after ≈ are worked out from the molar mass of the structure shown. Where a SMILES comes first, the peptide text is derived from it. Bridges are numbered along the chain shown (N, C = ends). Roman numbers before positions name the chains, in order. [ ]: non-standard residue; d: D form. Tle = CC(C)(C)[C@H](N)C(=O)O; dDab = NCC[C@@H](N)C(=O)O; Dab = NCC[C@H](N)C(=O)O
Columns and labels:
Type in all cases: cell-based
[1] = test system: Escherichia coli ATCC 25922; details: ATCC 25922
Outline: (§1)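 Broth microdilution per CLSI; MH-II (cation-adjusted) + 0.002% P-80 final; ~10^6 CFU/mL inoculum; 2-fold peptide series; 35° C, 18-20 h; MIC = no visible growth, μg/mL.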

[2] = test system: Acinetobacter baumannii 872842; details: 872842
Outline: as §1

[3] = test system: Pseudomonas aeruginosa ATCC 27853; details: ATCC 27853
Outline: as §1

[4] = test system: Acinetobacter baumannii DSM 30008; details: DSM 30008
Outline: as §1

Escherichia coli 926415 = details: 926415
Outline: as §1

[5] = test system: Enterobacter cloacae 848840; details: 848840
Outline: as §1

[6] = test system: Klebsiella pneumoniae 968733; details: 968733
Outline: as §1

[7] = test system: Klebsiella pneumoniae SSI #3010; details: SSI #3010
Outline: as §1

[8] = test system: human red blood cells (hRBC); test: Hemolysis; details: red cells of human, 1 h, 200
Outline: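 Washed fresh hRBC (20% v/v) were incubated with peptides at 200 μg/mL for 1 h at 37° C with shaking at 300 rpm. Supernatant OD540 was read after centrifugation and dilution, blank-corrected, and expressed as percent of the 2% Triton X-100 (100% lysis) control; PBS with 10% water gave 0%.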

MIC [1] [µg/mL]	MIC [2] [µg/mL]	MIC [3] [µg/mL]	MIC [4] [µg/mL]	MIC (Escherichia coli 926415) [µg/mL]	MIC [5] [µg/mL]	MIC [6] [µg/mL]	MIC [7] [µg/mL]	SMILES	Hemolysis at 200 μg/mL [8] [%]
0.0625 (≈ 0.0243 µM)	0.125 (≈ 0.0486 µM)	0.125 (≈ 0.0486 µM)	0.125 (≈ 0.0486 µM)	0.25 (≈ 0.0971 µM)	4 (≈ 1.55 µM)	1 (≈ 0.389 µM)	0.125 (≈ 0.0486 µM)	CC(C)C[C@@H]1NC(=O)[C@@H](CC(C)C)NC(=O)[C@H](CCN)NC(=O)[C@@H](NC(=O)[C@H](CCN)NC(=O)[C@@H](NC(=O)[C@H](CCN)NC(=O)CC[C@@H]2NC(=O)[C@H](CCN)NC(=O)[C@H](Cc3ccc(O)cc3)NC(=O)[C@@H](NC(=O)[C@@H](NC(=O)[C@H](N)CO)C(C)C)CSSC[C@@H](C(=O)N[C@@H](CO)C(=O)N[C@H](CO)C(=O)O)NC(=O)[C@H](C(C)(C)C)NC(=O)[C@H](CO)NC(=O)[C@H](Cc3c[nH]c4ccccc34)NC(=O)[C@H]([C@@H](C)O)NC(=O)[C@@H](CCN)NC2=O)[C@@H](C)O)CCNC(=O)[C@H]([C@@H](C)O)NC(=O)[C@H](CCN)NC(=O)[C@H](CCN)NC1=O [Ex. 242] (I: H-[dS]VCY[Dab]E[dDab]TWS[Tle]CS[dS]-OH / II: [Dab]T[Dab][Dab][Dab][dL]L[Dab][Dab]T; disulfide I:3-I:12; amide I:6-II:N; lactam II:4-II:C)	<1
0.0625 (≈ 0.0256 µM)	0.125 (≈ 0.0512 µM)	0.125 (≈ 0.0512 µM)	0.125 (≈ 0.0512 µM)	0.125 (≈ 0.0512 µM)	0.125 (≈ 0.0512 µM)	0.25 (≈ 0.102 µM)	0.125 (≈ 0.0512 µM)	CC(=O)N[C@H](C(=O)N[C@H]1CSSC[C@@H](C(=O)N[C@@H](CO)C(N)=O)NC(=O)[C@H](C(C)(C)C)NC(=O)[C@H](CO)NC(=O)[C@H](Cc2c[nH]c3ccccc23)NC(=O)[C@H]([C@@H](C)O)NC(=O)[C@@H](CCN)NC(=O)[C@H](CCC(=O)N[C@@H](CCN)C(=O)N[C@H](C(=O)N[C@@H](CCN)C(=O)N[C@H]2CCNC(=O)[C@H]([C@@H](C)O)NC(=O)[C@H](CCN)NC(=O)[C@H](CCN)NC(=O)[C@H](CC(C)C)NC(=O)[C@@H](CC(C)C)NC(=O)[C@H](CCN)NC2=O)[C@@H](C)O)NC(=O)[C@H](CCN)NC(=O)[C@H](Cc2ccc(O)cc2)NC1=O)C(C)C [Ex. 44] (I: Ac-VCY[Dab]E[dDab]TWS[Tle]CS-NH2 / II: [Dab]T[Dab][Dab][Dab][dL]L[Dab][Dab]T; disulfide I:2-I:11; amide I:5-II:N; lactam II:4-II:C)	<1
0.125 (≈ 0.0521 µM)	0.5 (≈ 0.208 µM)	0.125 (≈ 0.0521 µM)	0.25 (≈ 0.104 µM)	0.5 (≈ 0.208 µM)	8 (≈ 3.33 µM)	4 (≈ 1.67 µM)	0.125 (≈ 0.0521 µM)	CC(C)C[C@@H]1NC(=O)[C@@H](CC(C)C)NC(=O)[C@H](CCN)NC(=O)[C@@H](NC(=O)[C@H](CCN)NC(=O)[C@@H](NC(=O)[C@H](CCN)NC(=O)CC[C@@H]2NC(=O)[C@H](CCN)NC(=O)[C@H](Cc3ccc(O)cc3)NC(=O)[C@@H](NC(=O)[C@@H](N)C(C)C)CSSC[C@@H](C(=O)N[C@@H](CO)C(=O)O)NC(=O)[C@H](C(C)(C)C)NC(=O)[C@H](CO)NC(=O)[C@H](Cc3c[nH]c4ccccc34)NC(=O)[C@H]([C@@H](C)O)NC(=O)[C@@H](CCN)NC2=O)[C@@H](C)O)CCNC(=O)[C@H]([C@@H](C)O)NC(=O)[C@H](CCN)NC(=O)[C@H](CCN)NC1=O [Ex. 53] (I: H-VCY[Dab]E[dDab]TWS[Tle]CS-OH / II: [Dab]T[Dab][Dab][Dab][dL]L[Dab][Dab]T; disulfide I:2-I:11; amide I:5-II:N; lactam II:4-II:C)	<1
